Data as given in patent US20240208912A1 (Mirati Therapeutics, Inc., priority 2021, published 2024).
Read-outs that look alike come from different tables or passages of the source.

What was measured:
HCT116 parental cells = experiment: Proliferation assay (CellTiter-Glo, 10 days) in HCT116 parental cells; format: cell-based; conditions: CellTiter-Glo after 10 days of treatment
Procedure: (§1) Control samples were analyzed in parallel.
Briefly, on Day 0, 250 HCT116 parental or HCT116 homozygous MTAP knockout cell were seeded in 96 well plates in McCoy's 5A supplemented with […] fetal bovine serum and pen/strep and the cells were incubated overnight at 37° C. plus 5% CO2.
The following day, cells were treated with DMSO vehicle control or a dose response of PRMT5 inhibitors and incubated at 37 C plus 5% CO2 for five days. On Day 6, the cells were trypsinized and split 1:10 into new 96-well plates with fresh medium containing the same concentration of PRMT5 inhibitor and incubated for an additional 5 days at 37° C. plus 5% CO^2.
On Day 11, the viability of the cells was measured using a CTG assay kit (CellTiter-Glo; Promega cat.no G7573) in accordance with the manufacturer's instructions. The IC50 values for each compound after 10 days of treatment were calculated using GraphPad PRISM software.

[1] = test system: HCT116 homozygous MTAP knockout cells; experiment: Proliferation assay (CellTiter-Glo, 10 days) in HCT116 homozygous MTAP knockout cells; format: cell-based; conditions: CellTiter-Glo after 10 days of treatment, read-out: Proliferation IC50 (nM) HCT116 MTAP_KO
Summary of the method: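 MTAP-null HCT116 clone made by CRISPR/Cas9 knockout of both alleles, tested beside parental cells. Cells dosed the day after seeding, split 1:10 on day 6 into fresh medium with the same compound level, and read on day 11 by CellTiter-Glo. IC50 taken after 10 days of exposure.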

PRMT5/MEP50 complex = biological target: T1, PRMT5/MEP50 complex (Homo sapiens, UniProt O14744); experiment: PRMT5:MEP50 HotSpot Assay (full-length histone H2A substrate, plus and minus MTA); format: biochemical; conditions: IC50 + 2 μM MTA, in the presence of 2 μM MTA
T1 construct: purchased Reaction Biology Corporation
Summary of the method: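 Radiometric HotSpot format using recombinant full-length histone H2A as substrate, run with and without MTA. Reactions were stopped and spotted onto filter paper. Tritiated H2A was quantified by scintillation counting.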

[2] = test system: PRMT5-dependent Symmetric Di-methyl Arginine signal in HCT116 parental cells; experiment: SYM11 In-Cell Western in HCT116 parental cells; format: cell-based; conditions: HCT116 parental cells, 4 days of treatment, SYM11/DRAQ5 ratio as percent of DMSO control, read-out: In-cell-Western (SYM11) IC50 (nM) HCT216 parental
Procedure: as §1
Briefly, on Day 0, 2,000 HCT116 parental or HCT116 homozygous MTAP knockout cells were seeded in 96 well plates in McCoy's 5A supplemented with 10% fetal bovine serum and pen/strep and the cells were incubated overnight at 37° C. plus 5% CO2. The following day, cells were treated with DMSO vehicle control or a dose response of PRMT5 inhibitors, and incubated at 37° C. plus 5% CO^2 for four days.
After 4 days of treatment, the cells were fixed by adding 50 μl of 4% paraformaldehyde solution to each well and the cells were incubated for 20 min at room temperature. The paraformaldehyde solution was removed, 150 μl of ice-cold methanol was added and the plate was placed −20° C. for 10 minutes. The methanol was removed, 150 μl of Odyssey Blocking buffer+0.05% Tween20 was added and the plate was incubated at room temperature with shaking for one hour.
The primary SYM11 antibody solution was removed by aspiration and the wells were washed three consecutive times with phosphate buffered saline containing 0.1% Tween-20 (PBST).
The secondary antibody solution was removed by aspiration and the wells were washed three consecutive times with PBST.
The SYM11 signal and the DRAQ5 signal were quantified using a Li-Cor Odyssey machine reading at […], respectively. The SYM11/DRAQ5 ratio was used to calculate the inhibition of Symmetric Dimethyl Arginine as percent of DMSO control.

[3] = test system: PRMT5-dependent Symmetric Di-methyl Arginine signal in HCT116 homozygous MTAP Knockout cells; experiment: SYM11 In-Cell Western in HCT116 homozygous MTAP knockout cells; format: cell-based; conditions: 4 days of treatment, SYM11/DRAQ5 ratio as percent of DMSO control, read-out: In-cell-Western (SYM11) IC50 (nM) HCT116 MTAP_KO
Summary of the method: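 HCT116 cells with CRISPR homozygous MTAP knockout, alongside parental cells, treated four days with PRMT5 inhibitor dose response at 37° C., 5% CO2 in McCoy's 5A with 10% FBS.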

T1 sequence (O14744 2-637 limits assumed): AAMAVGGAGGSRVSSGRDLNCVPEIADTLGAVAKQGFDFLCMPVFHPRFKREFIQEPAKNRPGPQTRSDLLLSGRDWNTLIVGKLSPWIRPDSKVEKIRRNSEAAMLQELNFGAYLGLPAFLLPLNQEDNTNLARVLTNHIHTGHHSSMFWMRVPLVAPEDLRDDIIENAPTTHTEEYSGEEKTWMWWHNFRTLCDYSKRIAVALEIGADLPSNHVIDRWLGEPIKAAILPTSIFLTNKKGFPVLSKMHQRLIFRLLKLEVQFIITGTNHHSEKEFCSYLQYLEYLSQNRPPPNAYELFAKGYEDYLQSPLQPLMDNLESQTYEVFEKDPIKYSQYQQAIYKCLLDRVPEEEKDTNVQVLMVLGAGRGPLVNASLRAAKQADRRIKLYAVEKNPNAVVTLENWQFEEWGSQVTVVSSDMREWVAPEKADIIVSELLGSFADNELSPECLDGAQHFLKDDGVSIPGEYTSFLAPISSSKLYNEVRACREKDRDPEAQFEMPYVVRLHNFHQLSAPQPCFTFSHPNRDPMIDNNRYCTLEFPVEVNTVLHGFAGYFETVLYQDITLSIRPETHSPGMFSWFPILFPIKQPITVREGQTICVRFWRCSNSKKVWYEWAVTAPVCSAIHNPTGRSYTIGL
T1 sequence (Q9BQA1 2-342 partner limits assumed): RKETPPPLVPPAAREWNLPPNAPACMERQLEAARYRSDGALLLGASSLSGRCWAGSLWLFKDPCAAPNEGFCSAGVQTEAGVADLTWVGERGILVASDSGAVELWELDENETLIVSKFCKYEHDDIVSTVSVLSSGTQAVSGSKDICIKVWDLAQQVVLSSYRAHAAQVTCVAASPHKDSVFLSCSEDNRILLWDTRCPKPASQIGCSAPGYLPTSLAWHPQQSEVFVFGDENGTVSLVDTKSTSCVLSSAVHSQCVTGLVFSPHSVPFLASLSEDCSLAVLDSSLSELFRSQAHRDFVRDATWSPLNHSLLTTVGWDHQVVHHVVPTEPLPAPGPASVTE

| SMILES | IC50 (HCT116 parental cells; Homo sapiens, HCT-116, 240 h) | IC50 ([1]; Homo sapiens, HCT-116, 240 h) | IC50 (HCT116 parental cells) | IC50 (PRMT5/MEP50 complex) | IC50 [2] | IC50 [3] | IC50 [1] | IC50 ([2]; Homo sapiens, HCT-116, 96 h) | IC50 ([3]; Homo sapiens, HCT-116, 96 h) |
| --- | --- | --- | --- | --- | --- | --- | --- | --- | --- |
| N#Cc1c(OC2CC2)cc(Cl)c(F)c1-c1c(-c2ccc3c(=O)[nH]nc(CN)c3c2)cnn1C(F)F (atropisomer, axis not shown; (M)) [Example 16-106, (M)-2-(4-(4-(aminomethyl)-1-oxo-1,2-dihydrophthalazin-6-yl)-1-(difluoromethyl)-1H-pyrazol-5-yl)-4-chloro-6-cyclopropoxy-3-fluorobenzonitrile] | 1950 nM | 11 nM |  |  |  |  |  |  |  |
| Cn1ncc(-c2ccc3c(=O)[nH]nc(CN)c3c2)c1-c1c(F)cc2ccccc2c1C#N (single isomer, unassigned) [Example 16-1] |  |  | 757 nM | 38 nM | 316 nM |  |  |  |  |
| Cn1ncc(-c2ccc3c(=O)[nH]nc(CN)c3c2)c1-c1c(F)cc2ccccc2c1C#N (single isomer, unassigned) [Example 16-2] |  | 224 nM | 5920 nM | 111 nM | > 1000 nM | 73 nM |  |  |  |
| Cc1c(F)c(-c2c(-c3ccc4c(=O)[nH]nc(CN)c4c3)cnn2C)c(C#N)c2ccccc12 (single isomer, unassigned) [Example 16-13, (P)-2-[4-[4-(aminomethyl)-1-oxo-2H-phthalazin-6-yl]-2-methyl-pyrazol-3-yl]-3-fluoro-4-methyl-naphthalene-1-carbonitrile] |  |  | 770 nM | 237 nM | > 1000 nM | 232 nM | 211 nM |  |  |
| Cc1c(F)c(-c2c(-c3ccc4c(=O)[nH]nc(CN)c4c3)cnn2C)c(C#N)c2ccccc12 (single isomer, unassigned) [Example 16-14, (M)-2-[4-[4-(aminomethyl)-1-oxo-2H-phthalazin-6-yl]-2-methyl-pyrazol-3-yl]-3-fluoro-4-methyl-naphthalene-1-carbonitrile] |  |  | 4400 nM | 12.3 nM | 378 nM | 3 nM | 8 nM |  |  |
| Cn1ncc(-c2ccc3c(=O)[nH]nc(CN)c3c2)c1-c1c(F)ccc(OC2CC2)c1C#N (single isomer, unassigned) [Example 16-21, (P)-2-[4-[4-(aminomethyl)-1-oxo-2H-phthalazin-6-yl]-2-methyl-pyrazol-3-yl]-6-(cyclopropoxy)-3-fluoro-benzonitrile] | 4210 nM |  |  | 462 nM | 4480 nM | 65 nM | 112 nM |  |  |
| Cn1ncc(-c2ccc3c(=O)[nH]nc(CN)c3c2)c1-c1c(F)ccc(OC2CC2)c1C#N (single isomer, unassigned) [Example 16-22, (M)-2-[4-[4-(aminomethyl)-1-oxo-2H-phthalazin-6-yl]-2-methyl-pyrazol-3-yl]-6-(cyclopropoxy)-3-fluoro-benzonitrile] |  |  | 3620 nM | 107 nM | 1060 nM | 4 nM | 17 nM |  |  |
| CCOc1cc(-c2cnn(C)c2-c2c(F)c(C)c3cc(Cl)cnc3c2C#N)cc2c(CN)n[nH]c(=O)c12 (single isomer, unassigned) [Example 16-100, (M)-7-(4-(4-(aminomethyl)-8-ethoxy-1-oxo-1,2-dihydrophthalazin-6-yl)-1-methyl-1H-pyrazol-5-yl)-3-chloro-6-fluoro-5-methylquinoline-8-carbonitrile] | > 10000 nM |  |  | 1060 nM |  |  |  |  |  |
| Cn1ncc(-c2cc([C@H]3CCCO3)c3c(=O)[nH]nc(CN)c3c2)c1-c1sc2ccccc2c1C#N [Example 15-4, (R)-2-(4-(4-(aminomethyl)-1-oxo-8-(THF-2-yl)-1,2-dihydrophthalazin-6-yl)-1-methyl-1H-pyrazol-5-yl)benzo[b]thiophene-3-carbonitrile] |  | 1110 nM |  | 261 nM |  |  |  | 551 nM | 551 nM |
